Measurements as given in patent publication US20240174647A1 (NEURON23, INC., priority 2022, published 2024).

Each compound was assayed against wt human LRRK2, catalytic site (Homo sapiens (Human), UniProt Q5S007) (assay: TR-FRET LanthaScreen Tb Kinase Activity Assay (LRRK2 kinase inhibition)). Conditions: 2 nM wt human LRRK2, 400 nM fluorescein-ERM (LRRKtide) peptide, 38 μM ATP, 120 minutes at room temperature.
Sequence of wt human LRRK2, catalytic site (Q5S007 1879-2138): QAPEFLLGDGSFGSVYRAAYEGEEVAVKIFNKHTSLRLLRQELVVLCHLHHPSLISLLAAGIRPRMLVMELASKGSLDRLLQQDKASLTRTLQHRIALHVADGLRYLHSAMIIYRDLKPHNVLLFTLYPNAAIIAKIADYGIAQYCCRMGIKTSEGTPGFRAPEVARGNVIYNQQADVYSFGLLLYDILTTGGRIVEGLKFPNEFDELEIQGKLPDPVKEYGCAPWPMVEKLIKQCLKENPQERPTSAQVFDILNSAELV
Type: biochemical
In short: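 LanthaScreen TR-FRET with 2 nM wt human LRRK2 catalytic site, 400 nM fluorescein-ERM (LRRKtide) peptide and 38 µM ATP in Kinase Buffer A; 120 min at room temperature. Phosphorylation detected with EDTA and Tb-anti-pLRRKtide after 60 min; IC50 from emission ratios.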
`CNc1nc(Nc2ccc(C3CCN(C)CC3)c3c2cnn3CC#N)ncc1C(F)(F)F` [Example 109, 2-(4-((4-(methylamino)-5-(trifluoromethyl)pyrimidin-2-yl)amino)-7-(1-methylpiperidin-4-yl)-1H-indazol-1-yl)acetonitrile] was tested, and the IC50 was < 50 nM. `CC(C)Nc1nc(Nc2cccc3c2cnn3CC#N)ncc1C(F)(F)F` [Example 110, 2-(4-((4-(isopropylamino)-5-(trifluoromethyl)pyrimidin-2-yl)amino)-1H-indazol-1-yl)acetonitrile] was tested, and the IC50 was ≥ 200 nM. With `CNc1nc(Nc2ccc(Cl)c3c2cnn3CC#N)ncc1C(F)(F)F` [Example 111, 2-(7-chloro-4-((4-(methylamino)-5-(trifluoromethyl)pyrimidin-2-yl)amino)-1H-indazol-1-yl)acetonitrile] the IC50 was < 50 nM. `CC(C)(C#N)n1ncc2c(Nc3ncc(C(F)(F)F)c(NCC(F)(F)F)n3)cccc21` [Example 112, 2-methyl-2-(4-((4-((2,2,2-trifluoroethyl)amino)-5-(trifluoromethyl)pyrimidin-2-yl)amino)-1H-indazol-1-yl)propanenitrile] was tested, and the IC50 was < 50 nM. `CC(C)(C#N)n1ncc2c(Nc3ncc(C(F)(F)F)c(NC4CCC4)n3)cccc21` [Example 113, 2-(4-((4-(cyclobutylamino)-5-(trifluoromethyl)pyrimidin-2-yl)amino)-1H-indazol-1-yl)-2-methylpropanenitrile] was tested, and the IC50 was < 50 nM. With `CNc1nc(Nc2cc3[nH]ncc3cc2F)ncc1C(F)(F)F` [Example 114, N^2-(5-fluoro-1H-indazol-6-yl)-N^4-methyl-5-(trifluoromethyl)pyrimidine-2,4-diamine] the IC50 was < 50 nM. In the case of `CNc1nc(Nc2ccnc3ccnn23)ncc1C(F)(F)F` [Example 115, N^4-methyl-N^2-pyrazolo[1,5-a]pyrimidin-7-yl-5-(trifluoromethyl)pyrimidine-2,4-diamine], the IC50 is reported as ≥ 200 nM. For `CNc1nc(Nc2cc3[nH]ncc3cc2Cl)ncc1C(F)(F)F` [Example 116], the IC50 was < 50 nM. For `CNc1nc(Nc2ncn3ccccc23)ncc1C(F)(F)F` [Example 117, N^2-(imidazo[1,5-a]pyridin-1-yl)-N4-methyl-5-(trifluoromethyl)pyrimidine-2,4-diamine], the IC50 was ≥ 200 nM. For `CNc1nc(Nc2cnn3ccc(C#N)cc23)ncc1C(F)(F)F` [Example 118, 3-[[4-(methylamino)-5-(trifluoromethyl)pyrimidin-2-yl]amino]pyrazolo[1,5-a]pyridine-5-carbonitrile], the IC50 was < 50 nM. `CNc1nc(Nc2cnn3cc(C#N)ccc23)ncc1C(F)(F)F` [Example 119, 3-((4-(methylamino)-5-(trifluoromethyl)pyrimidin-2-yl)amino)pyrazolo[1,5-a]pyridine-6-carbonitrile] was tested, and the IC50 was < 50 nM. `C=Cc1cc2cn[nH]c2cc1Nc1ncc(C(F)(F)F)c(NC)n1` [Example 120, N^4-methyl-5-(trifluoromethyl)-N^2-(5-vinyl-1H-indazol-6-yl)pyrimidine-2,4-diamine] showed an IC50 of 50 to 200 nM. With `CNc1nc(Nc2cccc3nccn23)ncc1C(F)(F)F` [Example 121, N^2-imidazo[1,2-a]pyridin-5-yl-N^4-methyl-5-(trifluoromethyl)pyrimidine-2,4-diamine] the IC50 was ≥ 200 nM. For `CCc1cc2cn[nH]c2cc1Nc1ncc(C(F)(F)F)c(NC)n1` [Example 122, N2-(5-ethyl-1H-indazol-6-yl)-N4-methyl-5-(trifluoromethyl)pyrimidine-2,4-diamine], the IC50 was 50 to 200 nM. In the case of `CNc1nc(Nc2cc3[nH]ncc3cc2C(F)(F)F)ncc1C(F)(F)F` [Example 123, N^4-methyl-5-(trifluoromethyl)-N^2-[5-(trifluoromethyl)-1H-indazol-6-yl]pyrimidine-2,4-diamine], the IC50 is reported as ≥ 200 nM. For `CNc1nc(Nc2cccc3nncn23)ncc1C(F)(F)F` [Example 124, N^4-methyl-N^2-([1,2,4]triazolo[4,3-a]pyridin-5-yl)-5-(trifluoromethyl) pyrimidine-2,4-diamine], the IC50 was ≥ 200 nM. For `CNc1nc(Nc2cn(C)c3ncncc23)ncc1C(F)(F)F` [Example 125, 4-methyl-N2(7-methylpyrrolo[2,3-d]pyrimidin-5-yl)-5-(trifluoromethyl) pyrimidine-2,4-diamine], the IC50 was < 50 nM. In the case of `CNc1nc(Nc2ccc3cnccn23)ncc1C(F)(F)F` [Example 126, N^4-methyl-N^2-pyrrolo[1,2-a]pyrazin-6-yl-5-(trifluoromethyl)pyrimidine-2,4-diamine], the IC50 is reported as ≥ 200 nM. `CNc1nc(Nc2cccc3c2CC(=O)N3)ncc1C(F)(F)F` [Example 127, 4-[[4-(methylamino)-5-(trifluoromethyl)pyrimidin-2-yl]amino]indolin-2-one] was tested, and the IC50 was < 50 nM. `CNc1cc(Nc2nn(C)c3ncncc23)ncc1C(F)(F)F` [Example 128, N^4-methyl-N^2-(1-methyl-1H-pyrazolo[3,4-d]pyrimidin-3-yl)-5-(trifluoromethyl)pyridine-2,4-diamine] was tested, and the IC50 was 50 to 200 nM. For `CNc1nc(Nc2cc3[nH]ncc3cc2OC(F)(F)F)ncc1C(F)(F)F` [Example 129, N4-methyl-N2-[5-(trifluoromethoxy)-1H-indazol-6-yl]-5-(trifluoromethyl) pyrimidine-2,4-diamine], the IC50 was < 50 nM. `CNc1nc(Nc2cccn3cncc23)ncc1C(F)(F)F` [Example 130, N^2-(imidazo[1,5-a]pyridin-8-yl)-N^4-methyl-5-(trifluoromethyl)pyrimidine-2,4-diamine] was tested, and the IC50 was < 50 nM. `CNc1nc(Nc2cn(CC#N)c3cnccc23)ncc1C(F)(F)F` [Example 131, 2-[3-[[4-(methylamino)-5-(trifluoromethyl)pyrimidin-2-yl]amino]pyrrolo[2,3-c]pyridin-1-yl]acetonitrile] was tested, and the IC50 was < 50 nM. `O=S(=O)(C1CC1)n1ncc2c(Nc3ncc(C(F)(F)F)c(C4CC4)n3)cccc21` [Example 132, N-(4-cyclopropyl-5-(trifluoromethyl)pyrimidin-2-yl)-1-(cyclopropylsulfonyl)-1H-indazol-4-amine] gave an IC50 of 50 to 200 nM. In the case of `COCCn1ncc2c(Nc3ncc(C(F)(F)F)c(NC4CC4)n3)cccc21` [Example 133, N^4-cyclopropyl-N^2-[1-(2-methoxyethyl)indazol-4-yl]-5-(trifluoromethyl) pyrimidine-2,4-diamine], the IC50 is reported as < 50 nM. `FC(F)Cn1ncc2c(Nc3ncc(C(F)(F)F)c(NC4CC4)n3)cccc21` [Example 134, N^4-cyclopropyl-N2-[1-(2,2-difluoroethyl)indazol-4-yl]-5-(trifluoromethyl) pyrimidine-2,4-diamine] was tested, and the IC50 was < 50 nM. With `CC(C)S(=O)(=O)n1ncc2c(Nc3ncc(C(F)(F)F)c(NC4CC4)n3)cccc21` [Example 135, N^4-cyclopropyl-N^2-(1-isopropylsulfonylindazol-4-yl)-5-(trifluoromethyl) pyrimidine-2,4-diamine] the IC50 was < 50 nM. In the case of `COCCS(=O)(=O)n1ncc2c(Nc3ncc(C(F)(F)F)c(NC4CC4)n3)cccc21` [Example 136, N^4-cyclopropyl-N^2-(1-((2-methoxyethyl)sulfonyl)-1H-indazol-4-yl)-5-(trifluoromethyl)pyrimidine-2,4-diamine], the IC50 is reported as < 50 nM. For `O=S(=O)(C1CC1)n1ncc2c(Nc3ncc(C(F)(F)F)c(NCCF)n3)cccc21` [Example 137, N^2-(1-(cyclopropylsulfonyl)-1H-indazol-4-yl)-N^4-(2-fluoroethyl)-5-(trifluoromethyl) pyrimidine-2,4-diamine], the IC50 was < 50 nM.
